# Like-named read-outs stand apart in the source and are kept apart here.
# Key:
# Test in all cases: Kinase activity test (ReactionBiology), % enzyme activity relative to DMSO;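 as to remaining activity: FDA-approved drugs chosen by structure-based repositioning, each screened at 10 or 1 µM for kinase activity, expressed as percent of DMSO controls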
# Format in all cases: biochemical
# NEK2 = target: T1, NEK2 (Homo sapiens, UniProt P51955); settings: NEK2;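 also: FDA-approved drugs chosen by structure-based repositioning, each screened at 10 or 1 µM for kinase activity, expressed as percent of DMSO controls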
# T1 construct: purchased ReactionBiology
# T1 sequence (P51955 1-445): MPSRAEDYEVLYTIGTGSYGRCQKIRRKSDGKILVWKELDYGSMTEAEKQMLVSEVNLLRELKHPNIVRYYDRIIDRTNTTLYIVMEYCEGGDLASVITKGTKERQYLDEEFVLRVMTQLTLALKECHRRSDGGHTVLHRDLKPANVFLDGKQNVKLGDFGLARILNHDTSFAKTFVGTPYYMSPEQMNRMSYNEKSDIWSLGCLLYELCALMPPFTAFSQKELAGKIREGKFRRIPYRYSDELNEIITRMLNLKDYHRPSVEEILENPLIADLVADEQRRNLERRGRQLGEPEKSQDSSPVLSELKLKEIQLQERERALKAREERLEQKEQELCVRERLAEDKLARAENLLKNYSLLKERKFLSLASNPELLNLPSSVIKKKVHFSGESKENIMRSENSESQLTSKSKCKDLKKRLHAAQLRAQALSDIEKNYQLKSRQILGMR
# CK1d = target: T2, CK1d (Homo sapiens, UniProt P48730); settings: CK1d; for % Enzyme Activity (relative to DMSO controls), Data 1: replicate Data 1; for % Enzyme Activity (relative to DMSO controls), Data 2: replicate Data 2
# T2 construct: purchased ReactionBiology
# EPHB4 = target: T3, EPHB4 (Homo sapiens, UniProt P54760); settings: EPHB4; for % Enzyme Activity (relative to DMSO controls), Data 1: replicate Data 1; for % Enzyme Activity (relative to DMSO controls), Data 2: replicate Data 2;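 as to all read-outs here: EPHB4 was one of ten selected kinases in the screening panel, with enzyme activity expressed as a percentage of DMSO controls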
# T3 construct: purchased ReactionBiology
# T3 sequence (P54760 16-987): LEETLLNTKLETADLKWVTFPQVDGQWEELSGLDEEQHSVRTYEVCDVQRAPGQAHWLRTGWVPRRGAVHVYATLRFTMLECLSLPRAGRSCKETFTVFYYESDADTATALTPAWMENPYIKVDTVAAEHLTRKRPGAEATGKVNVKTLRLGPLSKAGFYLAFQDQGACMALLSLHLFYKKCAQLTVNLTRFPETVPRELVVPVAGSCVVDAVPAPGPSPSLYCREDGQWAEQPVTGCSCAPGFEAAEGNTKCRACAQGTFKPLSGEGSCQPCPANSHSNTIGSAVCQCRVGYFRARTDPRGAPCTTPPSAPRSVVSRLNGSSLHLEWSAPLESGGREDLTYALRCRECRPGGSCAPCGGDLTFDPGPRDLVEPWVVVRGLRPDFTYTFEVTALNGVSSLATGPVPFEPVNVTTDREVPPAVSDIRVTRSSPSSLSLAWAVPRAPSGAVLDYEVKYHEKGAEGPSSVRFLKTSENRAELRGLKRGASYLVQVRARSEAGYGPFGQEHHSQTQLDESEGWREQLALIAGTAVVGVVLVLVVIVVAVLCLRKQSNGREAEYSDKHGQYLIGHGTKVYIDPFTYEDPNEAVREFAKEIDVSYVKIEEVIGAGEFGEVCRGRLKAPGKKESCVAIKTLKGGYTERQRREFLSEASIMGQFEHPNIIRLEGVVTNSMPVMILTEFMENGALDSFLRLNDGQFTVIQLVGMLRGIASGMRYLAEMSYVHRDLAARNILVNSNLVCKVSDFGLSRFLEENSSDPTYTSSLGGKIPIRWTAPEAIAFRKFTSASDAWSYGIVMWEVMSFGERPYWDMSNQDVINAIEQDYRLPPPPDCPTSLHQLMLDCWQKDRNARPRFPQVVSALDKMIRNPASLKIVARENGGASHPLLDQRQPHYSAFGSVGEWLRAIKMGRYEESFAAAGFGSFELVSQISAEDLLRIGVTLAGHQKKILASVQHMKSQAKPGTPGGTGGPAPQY
# VEGFR2 = VEGFR2 (Homo sapiens, UniProt P35968); set-up: purchased ReactionBiology; settings: VEGFR2; for % Enzyme Activity (relative to DMSO controls), Data 1: replicate Data 1; for % Enzyme Activity (relative to DMSO controls), Data 2: replicate Data 2;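 as to all read-outs here: VEGFR2 was one member of a ten-kinase screening panel testing marketed FDA-approved drugs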
# DAPK1 = target: T4, DAPK1 (Homo sapiens, UniProt P53355); settings: DAPK1; for % Enzyme Activity (relative to DMSO controls), Data 1: replicate Data 1; for % Enzyme Activity (relative to DMSO controls), Data 2: replicate Data 2
# T4 construct: purchased ReactionBiology
# T4 sequence (P53355 whole entry): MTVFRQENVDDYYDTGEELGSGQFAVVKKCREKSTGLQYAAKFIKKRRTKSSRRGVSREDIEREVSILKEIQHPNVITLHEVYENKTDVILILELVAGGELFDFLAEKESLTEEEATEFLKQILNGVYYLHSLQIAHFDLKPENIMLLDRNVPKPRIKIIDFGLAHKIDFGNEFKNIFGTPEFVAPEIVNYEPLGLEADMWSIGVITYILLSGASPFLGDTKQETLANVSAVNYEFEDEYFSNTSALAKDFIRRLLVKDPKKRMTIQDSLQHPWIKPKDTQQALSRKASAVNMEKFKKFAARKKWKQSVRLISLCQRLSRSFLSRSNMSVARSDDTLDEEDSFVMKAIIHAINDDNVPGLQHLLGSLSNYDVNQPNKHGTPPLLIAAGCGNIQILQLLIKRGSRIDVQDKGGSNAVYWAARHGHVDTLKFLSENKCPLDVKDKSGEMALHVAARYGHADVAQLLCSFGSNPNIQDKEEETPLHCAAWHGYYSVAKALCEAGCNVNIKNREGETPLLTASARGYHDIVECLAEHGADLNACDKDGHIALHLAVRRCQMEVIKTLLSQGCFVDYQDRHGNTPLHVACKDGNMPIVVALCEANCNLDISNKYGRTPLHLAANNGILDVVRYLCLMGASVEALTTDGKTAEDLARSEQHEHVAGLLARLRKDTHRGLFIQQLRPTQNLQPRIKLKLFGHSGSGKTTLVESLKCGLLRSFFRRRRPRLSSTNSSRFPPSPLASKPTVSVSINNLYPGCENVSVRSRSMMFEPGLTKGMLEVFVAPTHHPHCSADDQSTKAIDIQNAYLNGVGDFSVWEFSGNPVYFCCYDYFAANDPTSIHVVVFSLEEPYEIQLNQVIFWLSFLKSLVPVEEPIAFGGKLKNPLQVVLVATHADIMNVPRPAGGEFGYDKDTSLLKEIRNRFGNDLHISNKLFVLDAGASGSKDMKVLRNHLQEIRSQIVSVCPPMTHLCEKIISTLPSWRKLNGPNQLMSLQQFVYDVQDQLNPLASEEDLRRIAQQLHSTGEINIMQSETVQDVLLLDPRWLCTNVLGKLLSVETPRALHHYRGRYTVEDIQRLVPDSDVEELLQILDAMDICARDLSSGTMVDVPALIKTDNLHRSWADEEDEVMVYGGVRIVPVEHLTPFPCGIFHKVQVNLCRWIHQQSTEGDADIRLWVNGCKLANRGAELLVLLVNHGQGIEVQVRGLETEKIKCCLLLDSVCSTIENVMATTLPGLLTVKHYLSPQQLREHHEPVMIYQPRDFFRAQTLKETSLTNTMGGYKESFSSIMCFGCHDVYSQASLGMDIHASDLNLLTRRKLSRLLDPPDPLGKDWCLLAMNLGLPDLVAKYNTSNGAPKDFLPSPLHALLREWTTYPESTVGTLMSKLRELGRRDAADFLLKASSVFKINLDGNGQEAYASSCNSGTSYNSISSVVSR
# Chain of VEGFR2 (P35968 20-1356): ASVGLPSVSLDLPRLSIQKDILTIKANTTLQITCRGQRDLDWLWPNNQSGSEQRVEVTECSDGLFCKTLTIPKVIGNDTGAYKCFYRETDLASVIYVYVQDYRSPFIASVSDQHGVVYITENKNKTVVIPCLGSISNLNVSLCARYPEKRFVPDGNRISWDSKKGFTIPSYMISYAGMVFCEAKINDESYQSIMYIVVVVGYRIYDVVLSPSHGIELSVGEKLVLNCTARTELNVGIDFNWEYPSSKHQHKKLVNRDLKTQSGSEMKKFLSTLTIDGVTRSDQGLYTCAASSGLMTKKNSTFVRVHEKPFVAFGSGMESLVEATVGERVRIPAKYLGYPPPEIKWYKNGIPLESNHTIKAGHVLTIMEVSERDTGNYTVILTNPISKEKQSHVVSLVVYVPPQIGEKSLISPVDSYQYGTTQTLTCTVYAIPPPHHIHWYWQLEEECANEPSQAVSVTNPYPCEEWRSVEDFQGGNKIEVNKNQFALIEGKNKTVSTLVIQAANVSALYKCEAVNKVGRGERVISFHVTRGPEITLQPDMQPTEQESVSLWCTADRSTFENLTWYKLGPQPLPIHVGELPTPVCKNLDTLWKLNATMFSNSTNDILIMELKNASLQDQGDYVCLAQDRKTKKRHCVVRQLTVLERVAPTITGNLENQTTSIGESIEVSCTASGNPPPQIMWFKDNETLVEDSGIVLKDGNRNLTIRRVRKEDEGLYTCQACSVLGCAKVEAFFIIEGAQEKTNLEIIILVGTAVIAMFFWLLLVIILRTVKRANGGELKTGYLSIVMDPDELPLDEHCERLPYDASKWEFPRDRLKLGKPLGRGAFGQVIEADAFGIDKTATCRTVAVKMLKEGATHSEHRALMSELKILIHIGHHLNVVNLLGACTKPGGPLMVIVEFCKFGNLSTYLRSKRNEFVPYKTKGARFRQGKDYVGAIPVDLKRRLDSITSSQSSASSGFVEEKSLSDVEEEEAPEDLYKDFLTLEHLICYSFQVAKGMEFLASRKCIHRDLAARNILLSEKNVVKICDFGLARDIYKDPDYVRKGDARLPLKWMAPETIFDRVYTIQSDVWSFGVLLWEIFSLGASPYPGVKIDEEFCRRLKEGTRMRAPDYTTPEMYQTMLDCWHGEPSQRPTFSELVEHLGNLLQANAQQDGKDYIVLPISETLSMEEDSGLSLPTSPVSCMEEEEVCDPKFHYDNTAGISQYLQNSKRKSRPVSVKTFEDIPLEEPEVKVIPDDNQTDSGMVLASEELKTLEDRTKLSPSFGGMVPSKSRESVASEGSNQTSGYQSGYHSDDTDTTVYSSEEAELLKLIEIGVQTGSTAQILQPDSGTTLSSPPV
# T2 sequence (P48730 whole entry): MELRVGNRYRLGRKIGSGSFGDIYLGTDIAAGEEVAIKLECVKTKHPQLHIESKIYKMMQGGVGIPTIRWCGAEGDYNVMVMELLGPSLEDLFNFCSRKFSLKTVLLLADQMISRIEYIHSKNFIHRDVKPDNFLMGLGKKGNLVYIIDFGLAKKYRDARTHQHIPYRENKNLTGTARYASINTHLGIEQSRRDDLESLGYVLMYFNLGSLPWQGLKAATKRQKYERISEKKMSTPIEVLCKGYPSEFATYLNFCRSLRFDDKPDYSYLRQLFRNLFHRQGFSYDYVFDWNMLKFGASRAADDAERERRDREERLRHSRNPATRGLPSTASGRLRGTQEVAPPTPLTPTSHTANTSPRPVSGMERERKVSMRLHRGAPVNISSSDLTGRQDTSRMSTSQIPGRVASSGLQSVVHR
"% Enzyme Activity (relative to DMSO controls), Average (NEK2; 1 uM, Average) [%]","% Enzyme Activity (relative to DMSO controls), Data 1 (NEK2; 1 uM, replicate Data 1) [%]","% Enzyme Activity (relative to DMSO controls), Data 2 (NEK2; 1 uM, replicate Data 2) [%]","% Enzyme Activity (relative to DMSO controls), Average (NEK2; 10 uM, Average) [%]","% Enzyme Activity (relative to DMSO controls), Data 1 (NEK2; 10 uM, replicate Data 1) [%]","% Enzyme Activity (relative to DMSO controls), Data 2 (NEK2; 10 uM, replicate Data 2) [%]","% Enzyme Activity (relative to DMSO controls), Average (EPHB4; 1 uM) [%]","% Enzyme Activity (relative to DMSO controls), Data 1 (EPHB4; 1 uM) [%]","% Enzyme Activity (relative to DMSO controls), Data 2 (EPHB4; 1 uM) [%]","% Enzyme Activity (relative to DMSO controls), Average (EPHB4; 10 uM) [%]","% Enzyme Activity (relative to DMSO controls), Data 1 (EPHB4; 10 uM) [%]","% Enzyme Activity (relative to DMSO controls), Data 2 (EPHB4; 10 uM) [%]","% Enzyme Activity (relative to DMSO controls), Average (VEGFR2; 1 uM) [%]","% Enzyme Activity (relative to DMSO controls), Data 1 (VEGFR2; 1 uM) [%]","% Enzyme Activity (relative to DMSO controls), Data 2 (VEGFR2; 1 uM) [%]","% Enzyme Activity (relative to DMSO controls), Average (VEGFR2; 10 uM) [%]","% Enzyme Activity (relative to DMSO controls), Data 1 (VEGFR2; 10 uM) [%]","% Enzyme Activity (relative to DMSO controls), Data 2 (VEGFR2; 10 uM) [%]",SMILES,also measured
92.13,87.06,97.20,102.79,100.11,105.46,,,,,,,,,,,,,O=C(O)c1cc(-c2ccc(F)cc2F)ccc1O [Diflunisal],"% Enzyme Activity (relative to DMSO controls), Average (CK1d; 1 uM): 189.68%; % Enzyme Activity (relative to DMSO controls), Data 1 (CK1d; 1 uM): 106.89%; % Enzyme Activity (relative to DMSO controls), Data 2 (CK1d; 1 uM): 272.47%; % Enzyme Activity (relative to DMSO controls), Average (CK1d; 10 uM): 105.59%; % Enzyme Activity (relative to DMSO controls), Data 1 (CK1d; 10 uM): 104.76%; % Enzyme Activity (relative to DMSO controls), Data 2 (CK1d; 10 uM): 106.42%"
,,,,,,97.11,97.96,96.26,88.19,86.49,89.88,,,,,,,O=C1c2cccc3c2[C@H](CCC3)CN1[C@@H]1CN2CCC1CC2 [Palonosetron],
,,,,,,101.67,102.42,100.92,94.49,94.37,94.61,106.05,102.9,109.19,96.15,86.33,105.96,CCCCC1C(=O)N(c2ccccc2)N(c2ccccc2)C1=O [Phenylbutazone],
106.09,107.69,104.49,102.63,102.17,103.08,,,,,,,107.43,104.33,110.52,102.76,106.39,99.13,CCc1nc(N)nc(N)c1-c1ccc(Cl)cc1 [Pyrimethamine],"% Enzyme Activity (relative to DMSO controls), Average (CK1d; 1 uM): 93.71%; % Enzyme Activity (relative to DMSO controls), Data 1 (CK1d; 1 uM): 95.24%; % Enzyme Activity (relative to DMSO controls), Data 2 (CK1d; 1 uM): 92.18%; % Enzyme Activity (relative to DMSO controls), Average (CK1d; 10 uM): 84.36%; % Enzyme Activity (relative to DMSO controls), Data 1 (CK1d; 10 uM): 85.89%; % Enzyme Activity (relative to DMSO controls), Data 2 (CK1d; 10 uM): 82.82%"
103.04,108.18,97.89,95.93,101.42,90.43,,,,,,,107.68,107.41,107.94,105.59,105,106.17,Cc1nc(=O)c2cc(CN(C)c3ccc(C(=O)N[C@@H](CCC(=O)O)C(=O)O)s3)ccc2[nH]1 [Raltitrexed],
,95.77,,,85.23,,,,,,,,,112.59,,,111.96,,CCCc1nn(C)c2c(=O)[nH]c(-c3cc(S(=O)(=O)N4CCN(C)CC4)ccc3OCC)nc12 [Sildenafil],"% Enzyme Activity (relative to DMSO controls), Data 1 (CK1d; 1 uM): 107.72%"
,,,,,,101.51,102.27,100.74,94.56,96.08,93.04,,,,,,,C/C(O)=C(\C#N)C(=O)Nc1ccc(C(F)(F)F)cc1 [Teriflunomide],
,,,,,,,,,,,,,,,,,,Cc1ccc(C(=O)c2ccc(CC(=O)O)n2C)cc1 [Tolmetin],"% Enzyme Activity (relative to DMSO controls), Average (NEK2; compound at 1 uM, average of Data 1 and Data 2): 115.23%; % Enzyme Activity (relative to DMSO controls), Data 1 (NEK2; compound at 1 uM, replicate 1): 120.50%; % Enzyme Activity (relative to DMSO controls), Data 2 (NEK2; compound at 1 uM, replicate 2): 109.96%; % Enzyme Activity (relative to DMSO controls), Average (NEK2; compound at 10 uM, average of Data 1 and Data 2): 107.09%; % Enzyme Activity (relative to DMSO controls), Data 1 (NEK2; compound at 10 uM, replicate 1): 112.71%; % Enzyme Activity (relative to DMSO controls), Data 2 (NEK2; compound at 10 uM, replicate 2): 101.47%"
,,,,,,,,,,,,,,,,,,NC[C@H]1CC[C@H](C(=O)O)CC1 [Tranexamic acid],"remaining activity at 1 µM (NEK2; 1 uM, Average, read-out: % Enzyme Activity (relative to DMSO controls), Average): 72.5%; remaining activity at 1 µM (NEK2; 1 uM, replicate Data 1, read-out: % Enzyme Activity (relative to DMSO controls), Data 1): 60.7%; remaining activity at 1 µM (NEK2; 1 uM, replicate Data 2, read-out: % Enzyme Activity (relative to DMSO controls), Data 2): 84.2%; remaining activity at 10 µM (NEK2; 10 uM, Average, read-out: % Enzyme Activity (relative to DMSO controls), Average): 85.3%; remaining activity at 10 µM (NEK2; 10 uM, replicate Data 1, read-out: % Enzyme Activity (relative to DMSO controls), Data 1): 72.1%; remaining activity at 10 µM (NEK2; 10 uM, replicate Data 2, read-out: % Enzyme Activity (relative to DMSO controls), Data 2): 98.5%"

SMILES,"% Enzyme Activity (relative to DMSO controls), Average (NEK2; 1 uM, Average) [%]","% Enzyme Activity (relative to DMSO controls), Data 1 (NEK2; 1 uM, replicate Data 1) [%]","% Enzyme Activity (relative to DMSO controls), Data 2 (NEK2; 1 uM, replicate Data 2) [%]","% Enzyme Activity (relative to DMSO controls), Average (NEK2; 10 uM, Average) [%]","% Enzyme Activity (relative to DMSO controls), Data 1 (NEK2; 10 uM, replicate Data 1) [%]","% Enzyme Activity (relative to DMSO controls), Data 2 (NEK2; 10 uM, replicate Data 2) [%]","% Enzyme Activity (relative to DMSO controls), Average (EPHB4; 1 uM) [%]","% Enzyme Activity (relative to DMSO controls), Data 1 (EPHB4; 1 uM) [%]","% Enzyme Activity (relative to DMSO controls), Data 2 (EPHB4; 1 uM) [%]","% Enzyme Activity (relative to DMSO controls), Average (EPHB4; 10 uM) [%]","% Enzyme Activity (relative to DMSO controls), Data 1 (EPHB4; 10 uM) [%]","% Enzyme Activity (relative to DMSO controls), Data 2 (EPHB4; 10 uM) [%]","% Enzyme Activity (relative to DMSO controls), Average (VEGFR2; 1 uM) [%]","% Enzyme Activity (relative to DMSO controls), Data 1 (VEGFR2; 1 uM) [%]","% Enzyme Activity (relative to DMSO controls), Data 2 (VEGFR2; 1 uM) [%]","% Enzyme Activity (relative to DMSO controls), Average (VEGFR2; 10 uM) [%]","% Enzyme Activity (relative to DMSO controls), Data 1 (VEGFR2; 10 uM) [%]","% Enzyme Activity (relative to DMSO controls), Data 2 (VEGFR2; 10 uM) [%]",also measured
COc1ccc2c3c1O[C@H]1C[C@@H](O)C=C[C@@]31CCN(C)C2 [Galantamine],,,,,,,104.29,104.73,103.85,94.53,95.37,93.68,103.82,106.14,101.5,93.22,95.78,90.65,
N[C@H]1C(O)O[C@H](CO)[C@@H](O)[C@@H]1O (some centres unmarked) [Glucosamine],82.84,79.92,85.75,95.78,90.86,100.69,,,,,,,,,,,,,"% Enzyme Activity (relative to DMSO controls), Average (DAPK1; 1 uM): 102.43%; % Enzyme Activity (relative to DMSO controls), Data 1 (DAPK1; 1 uM): 102.25%; % Enzyme Activity (relative to DMSO controls), Data 2 (DAPK1; 1 uM): 102.61%; % Enzyme Activity (relative to DMSO controls), Average (DAPK1; 10 uM): 123.43%; % Enzyme Activity (relative to DMSO controls), Data 1 (DAPK1; 10 uM): 142.72%; % Enzyme Activity (relative to DMSO controls), Data 2 (DAPK1; 10 uM): 104.13%"
